{"source": "PubChem BioAssay (NCI)", "assay_in_all_cases": "NCI anticancer screen, dose series, 48 h", "key": {"786-0 renal": {"test_system": "786-0 renal"}, "A498 renal": {"test_system": "A498 renal"}, "A549 NSCLC": {"test_system": "A549 NSCLC"}, "ACHN renal": {"test_system": "ACHN renal"}, "CAKI-1 renal": {"test_system": "CAKI-1 renal"}, "CCRF-CEM leukemia": {"test_system": "CCRF-CEM leukemia"}, "COLO 205 colon": {"test_system": "COLO 205 colon"}, "DLD-1 colon": {"test_system": "DLD-1 colon"}, "DMS 114 small cell lung": {"test_system": "DMS 114 small cell lung"}, "DMS 273 small cell lung": {"test_system": "DMS 273 small cell lung"}, "EKVX NSCLC": {"test_system": "EKVX NSCLC"}, "HCC-2998 colon": {"test_system": "HCC-2998 colon"}, "HCT-116 colon": {"test_system": "HCT-116 colon"}, "HCT-15 colon": {"test_system": "HCT-15 colon"}, "HL-60(TB) leukemia": {"test_system": "HL-60(TB) leukemia"}, "HOP-18 NSCLC": {"test_system": "HOP-18 NSCLC"}, "HOP-62 NSCLC": {"test_system": "HOP-62 NSCLC"}, "HOP-92 NSCLC": {"test_system": "HOP-92 NSCLC"}, "HT29 colon": {"test_system": "HT29 colon"}, "IGROV1 ovarian": {"test_system": "IGROV1 ovarian"}, "K-562 leukemia": {"test_system": "K-562 leukemia"}, "KM12 colon": {"test_system": "KM12 colon"}, "KM20L2 colon": {"test_system": "KM20L2 colon"}, "LOX IMVI melanoma": {"test_system": "LOX IMVI melanoma"}, "LXFL 529 NSCLC": {"test_system": "LXFL 529 NSCLC"}, "M14 melanoma": {"test_system": "M14 melanoma"}, "M19-MEL melanoma": {"test_system": "M19-MEL melanoma"}, "MALME-3M melanoma": {"test_system": "MALME-3M melanoma"}, "MOLT-4 leukemia": {"test_system": "MOLT-4 leukemia"}, "NCI-H226 lung": {"test_system": "NCI-H226 lung"}, "NCI-H23 lung": {"test_system": "NCI-H23 lung"}, "NCI-H460 lung": {"test_system": "NCI-H460 lung"}, "NCI-H522 lung": {"test_system": "NCI-H522 lung"}, "OVCAR-3 ovarian": {"test_system": "OVCAR-3 ovarian"}, "OVCAR-4 ovarian": {"test_system": "OVCAR-4 ovarian"}, "OVCAR-5 ovarian": {"test_system": "OVCAR-5 ovarian"}, "OVCAR-8 ovarian": {"test_system": "OVCAR-8 ovarian"}, "RPMI-8226 leukemia": {"test_system": "RPMI-8226 leukemia"}, "RXF 393 renal": {"test_system": "RXF 393 renal"}, "SF-268 CNS": {"test_system": "SF-268 CNS"}, "SF-295 CNS": {"test_system": "SF-295 CNS"}, "SF-539 CNS": {"test_system": "SF-539 CNS"}, "SK-MEL-2 melanoma": {"test_system": "SK-MEL-2 melanoma"}, "SK-MEL-28 melanoma": {"test_system": "SK-MEL-28 melanoma"}, "SK-MEL-5 melanoma": {"test_system": "SK-MEL-5 melanoma"}, "SK-OV-3 ovarian": {"test_system": "SK-OV-3 ovarian"}, "SN12C renal": {"test_system": "SN12C renal"}, "SNB-19 CNS": {"test_system": "SNB-19 CNS"}, "SNB-75 CNS": {"test_system": "SNB-75 CNS"}, "SNB-78 CNS": {"test_system": "SNB-78 CNS"}, "SR leukemia": {"test_system": "SR leukemia"}, "SW-620 colon": {"test_system": "SW-620 colon"}, "TK-10 renal": {"test_system": "TK-10 renal"}, "U251 CNS": {"test_system": "U251 CNS"}, "UACC-257 melanoma": {"test_system": "UACC-257 melanoma"}, "UACC-62 melanoma": {"test_system": "UACC-62 melanoma"}, "UO-31 renal": {"test_system": "UO-31 renal"}, "XF 498 CNS": {"test_system": "XF 498 CNS"}}, "note": "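All cell lines were grown in 96-well plates and treated with compound for 48 hours. The concentration for full growth arrest is given as TGI.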"}
{"compound": "Cc1cc(C)c2c(c1)N[S@@](=O)S2", "values": [{"measurement": "TGI", "setting": "786-0 renal", "result": 28.9, "unit": "µM"}, {"measurement": "TGI", "setting": "A498 renal", "result": "> 100", "unit": "µM"}, {"measurement": "TGI", "setting": "A549 NSCLC", "result": "> 100", "unit": "µM"}, {"measurement": "TGI", "setting": "ACHN renal", "result": 65.7, "unit": "µM"}, {"measurement": "TGI", "setting": "CAKI-1 renal", "result": 70.8, "unit": "µM"}, {"measurement": "TGI", "setting": "CCRF-CEM leukemia", "result": 61.3, "unit": "µM"}, {"measurement": "TGI", "setting": "COLO 205 colon", "result": 33.5, "unit": "µM"}, {"measurement": "TGI", "setting": "DLD-1 colon", "result": 59.2, "unit": "µM"}, {"measurement": "TGI", "setting": "DMS 114 small cell lung", "result": 38.7, "unit": "µM"}, {"measurement": "TGI", "setting": "DMS 273 small cell lung", "result": 38.2, "unit": "µM"}, {"measurement": "TGI", "setting": "EKVX NSCLC", "result": "> 100", "unit": "µM"}, {"measurement": "TGI", "setting": "HCC-2998 colon", "result": "> 100", "unit": "µM"}, {"measurement": "TGI", "setting": "HCT-116 colon", "result": 32.8, "unit": "µM"}, {"measurement": "TGI", "setting": "HCT-15 colon", "result": 33, "unit": "µM"}, {"measurement": "TGI", "setting": "HL-60(TB) leukemia", "result": 61.2, "unit": "µM"}, {"measurement": "TGI", "setting": "HOP-18 NSCLC", "result": 92.1, "unit": "µM"}, {"measurement": "TGI", "setting": "HOP-62 NSCLC", "result": "> 100", "unit": "µM"}, {"measurement": "TGI", "setting": "HOP-92 NSCLC", "result": "> 100", "unit": "µM"}, {"measurement": "TGI", "setting": "HT29 colon", "result": 41.1, "unit": "µM"}, {"measurement": "TGI", "setting": "IGROV1 ovarian", "result": "> 100", "unit": "µM"}, {"measurement": "TGI", "setting": "K-562 leukemia", "result": 67.9, "unit": "µM"}, {"measurement": "TGI", "setting": "KM12 colon", "result": 69.6, "unit": "µM"}, {"measurement": "TGI", "setting": "KM20L2 colon", "result": "> 100", "unit": "µM"}, {"measurement": "TGI", "setting": "LOX IMVI melanoma", "result": 30.7, "unit": "µM"}, {"measurement": "TGI", "setting": "LXFL 529 NSCLC", "result": 29.4, "unit": "µM"}, {"measurement": "TGI", "setting": "M14 melanoma", "result": 33.2, "unit": "µM"}, {"measurement": "TGI", "setting": "M19-MEL melanoma", "result": 46.7, "unit": "µM"}, {"measurement": "TGI", "setting": "MALME-3M melanoma", "result": 58.1, "unit": "µM"}, {"measurement": "TGI", "setting": "MOLT-4 leukemia", "result": 65.6, "unit": "µM"}, {"measurement": "TGI", "setting": "NCI-H226 lung", "result": 38.5, "unit": "µM"}, {"measurement": "TGI", "setting": "NCI-H23 lung", "result": "> 100", "unit": "µM"}, {"measurement": "TGI", "setting": "NCI-H460 lung", "result": 46.5, "unit": "µM"}, {"measurement": "TGI", "setting": "NCI-H522 lung", "result": 31.9, "unit": "µM"}, {"measurement": "TGI", "setting": "OVCAR-3 ovarian", "result": 39, "unit": "µM"}, {"measurement": "TGI", "setting": "OVCAR-4 ovarian", "result": 61.3, "unit": "µM"}, {"measurement": "TGI", "setting": "OVCAR-5 ovarian", "result": 81.9, "unit": "µM"}, {"measurement": "TGI", "setting": "OVCAR-8 ovarian", "result": 33.2, "unit": "µM"}, {"measurement": "TGI", "setting": "RPMI-8226 leukemia", "result": 88.5, "unit": "µM"}, {"measurement": "TGI", "setting": "RXF 393 renal", "result": 26.3, "unit": "µM"}, {"measurement": "TGI", "setting": "SF-268 CNS", "result": 34.5, "unit": "µM"}, {"measurement": "TGI", "setting": "SF-295 CNS", "result": "> 100", "unit": "µM"}, {"measurement": "TGI", "setting": "SF-539 CNS", "result": 50.5, "unit": "µM"}, {"measurement": "TGI", "setting": "SK-MEL-2 melanoma", "result": 82.9, "unit": "µM"}, {"measurement": "TGI", "setting": "SK-MEL-28 melanoma", "result": 95.1, "unit": "µM"}, {"measurement": "TGI", "setting": "SK-MEL-5 melanoma", "result": 80.6, "unit": "µM"}, {"measurement": "TGI", "setting": "SK-OV-3 ovarian", "result": 90.6, "unit": "µM"}, {"measurement": "TGI", "setting": "SN12C renal", "result": 36.7, "unit": "µM"}, {"measurement": "TGI", "setting": "SNB-19 CNS", "result": "> 100", "unit": "µM"}, {"measurement": "TGI", "setting": "SNB-75 CNS", "result": "> 100", "unit": "µM"}, {"measurement": "TGI", "setting": "SNB-78 CNS", "result": "> 100", "unit": "µM"}, {"measurement": "TGI", "setting": "SR leukemia", "result": 83.7, "unit": "µM"}, {"measurement": "TGI", "setting": "SW-620 colon", "result": 16.5, "unit": "µM"}, {"measurement": "TGI", "setting": "TK-10 renal", "result": 80.3, "unit": "µM"}, {"measurement": "TGI", "setting": "U251 CNS", "result": 31.1, "unit": "µM"}, {"measurement": "TGI", "setting": "UACC-257 melanoma", "result": 35.7, "unit": "µM"}, {"measurement": "TGI", "setting": "UACC-62 melanoma", "result": 37.9, "unit": "µM"}, {"measurement": "TGI", "setting": "UO-31 renal", "result": 39.4, "unit": "µM"}, {"measurement": "TGI", "setting": "XF 498 CNS", "result": 50.1, "unit": "µM"}]}
